Experimental data reported in US20060276549A1, “Combination and use of drugs” (priority 2005, published 2006).
Read-outs that look alike come from different tables or passages of the source.

Legend:
[1] = system: Diet-induced Obese (DIO) Mice; test: Prevention of body weight re-gain in DIO mice; assay type: in vivo, C57BL/6J mice; conditions: DIO mice re-introduced to high fat food; qd dosing, day 0-7; vs HF, LF, to HF control
Description: C57BL/6J mice (age 5-6 weeks) were obtained from Jackson Labs (Bar Harbor, Me.) and housed in groups of 5 under conditions of 12 hours lights on, 12 hours lights off (on at 04:00 h), with food and water available ad libitum. At the beginning of the study, mice were administered a purified low fat diet (D12450Bi, 10 kcal % fat, 3.8 kcal/g) or a high fat content diet (D12492i, 60 kcal % fat, 5.2 kcal/g), both obtained from Research Diets Inc. (New Brunswick, N.J.) for approximately 16 weeks. The fat content of these diets was a mixture of lard and soybean oil. Groups of mice that had been on the high fat diet were switched back to the low fat diet for approximately 4 weeks prior to their being re-introduced to either the high fat food (weight re-gain) or maintained on low fat food. Approximately 5 days prior to the onset of dosing study (Day -5), mice were acclimated to handling and conditioned to oral gavage and daily vehicle administration by daily oral treatment at 15:00 h with Tween-80 (Sigma Chemical, St. Louis, Mo.) 1% vehicle in water (VN). All doses were given in 4 ml/kg body weight volume of vehicle. At the start of drug treatment, mice were dosed qd at 15:00 hr each day for 7 days, and body weights and food intake were evaluated.

[2] = system: Diet-induced Obese (DIO) Mice; test: Body weight loss in diet-induced obese (DIO) mice; assay type: in vivo, C57BL/6J mice; conditions: for body weight loss at day 14: p.o. q.d., sibutramine 15 mg/kg, rimonabant 3 mg/kg base
Description: C57BL/6J mice (age 5-6 weeks) were obtained from Jackson Labs (Bar Harbor, Me.) and housed in groups of 5 under conditions of 12 hours lights on, 12 hours lights off (on at 04:00 h), with food and water available ad libitum. At the beginning of the study, mice were administered a purified low fat diet (D12450Bi, 10 kcal % fat, 3.8 kcal/g) or a high fat content diet (D12492i, 60 kcal % fat, 5.2 kcal/g), both obtained from Research Diets Inc. (New Brunswick, N.J.) for approximately 16 weeks. The fat content of these diets was a mixture of lard and soybean oil.
(§1) Mice were individually housed for study two weeks prior to start of treatment. Mice were weighed one week later (experiment day -7), and conditioned to oral gavage and daily vehicle administration by daily oral treatment at 15:00 h with Tween-80 (Sigma Chemical, St. Louis, Mo.) 1% vehicle in water (V/V). All doses were given in 4 ml/kg body weight volume of vehicle. All compound doses are expressed as base equivalent weights per unit body weight. Mice were reweighed on day -1 to ensure that weight loss plateaued and was not progressive. Mice were stratified into groups of equal mean body weight, with n=20 mice per group. On days 0 to 28, mice were dosed by oral gavage at 15:00 h (q.d.). Sibutramine hydrochloride monohydrate and rimonabant hydrochloride were administered p.o. by gavage for 27 to 28 days at 15:00 h, at doses of 15 mg/kg and 3 mg/kg base, respectively, once a day (q.d.). Compounds were formulated in Tween-80 vehicle. For combination treatment, the individual compound formulations were mixed together immediately prior to dosing, and given as a single gavage. Food and body weights were determined on days 0 prior to treatment, and on days 1, 4, 7, 11, 14, 18, 21, 25, 27 and 28. Ten mice per group were fasted overnight on day 27. […] Plasma was analysed for insulin, leptin, free fatty acids, triglycerides, total cholesterol, HDLc and LDLc. […]

Zucker fa/fa rats = test: Rat model of snacking behavior with isobologram analysis; assay type: in vivo; conditions: for ED50: Rattus norvegicus, read-out: ED50 for reduction of snack intake (50% reduction in Snack Consumption); for effect on snack intake / snacking: oral dosing before snack
Description: Non-fasted male Zucker fa/fa −/− rats (450 gr) were habituated for 3 weeks to a twice weekly, 3 hour exposure to 60% fat diet (RDI #12492) achieving an average snack intake of 12 to 16 g. Compounds or vehicle (1% Tween 80/water) were dosed orally, 1 ml/kg, n=12-15/group, 1 hour before exclusive presentation of the snack. Snack intake and subsequent 21-hour intake of standard chow (Purina 5008) were measured. […] It is unclear from these individual studies, however, if combination treatment would result in an even greater effect on snacking behavior as reflected in a shift of the ED50 to lower doses. Therefore, an isobologram analysis was performed as described in Example 6
Dose response curves for sibutramine hydrochloride monohydrate and rimonabant hydrochloride were generated in the rat snacking model and ED50 and 95% confidence limits derived from the linear part of the curve by linear regression. Two combination studies in snacking (n=12 rats/group) were performed; the first with a fixed dose of sibutramine HCl (5 mg base/kg) co-administered with rimonabant at 1, 2.5, and 5 mg base/kg, and the second with rimonabant fixed at 4 mg base/kg with sibutramine at 2, 4, and 8 mg base/kg, plus vehicle control. ED50 values were derived from the combination studies and plotted on the isobologram. The ED50 is the dose where there is a 50% reduction in Snack Consumption. […] The rimonabant hydrochloride ED50 is 8 mg/kg.

DIO mice = test: DEXA analysis of body composition in DIO mice; assay type: in vivo; conditions: Day 28
Description: as §1

[3] = cited from earlier work

Cc1c(C(=O)NN2CCCCC2)nn(-c2ccc(Cl)cc2Cl)c1-c1ccc(Cl)cc1 [rimonabant, 1-H-pyrazole-3-carboxamide, 5-(4-chlorophenyl)-1-(2,4-dichlorophenyl)-4-methyl-N-1-piperidinyl]
body weight re-gain [1]: prevent body weight re-gain | further weight loss compared with sibutramine treated animals ([2]; Day 14-28): approximately 4% | body weight loss at day 14 [2]: 15% | ED50 (Zucker fa/fa rats; Zucker fa/fa rats, oral, 1 hour before 3 hour 60% fat snack): 8 mg/kg | effect on snack intake / snacking (Zucker fa/fa rats): effective in reducing snack intake

CC(C)CC(N(C)C)C1(c2ccc(Cl)cc2)CCC1 (stereo not drawn) [sibutramine, N,N-dimethyl-1-[1-(4-chlorophenyl)cyclobutyl]-3-methylbutylamine]
body weight re-gain [1]: prevent body weight re-gain | body weight loss at day 14 [2]: 14% | lean mass (DEXA) vs. DIO controls (DIO mice): statistical decreases in lean mass | ED50 (Zucker fa/fa rats; po): 24 mg/kg | effect on snack intake / snacking (Zucker fa/fa rats): effective in reducing snack intake | food intake ([3]; literature studies, initially): potently inhibits food intake | reduction of body weight ([3]; over a 6 month or a 1 year period): about 10%
